The values below are quoted from earlier work in patent publication US20150291659A1, “SOLOMONAMIDE ANALOGUE COMPOUNDS, PHARMACEUTICALS CONTAINING SOLOMONAMIDE ANALOGUE COMPOUNDS, AND PROCESSES FOR THE PREPARATION THEREOF” (COUNCIL OF SCIENTIFIC AND INDUSTRIAL RESEARCH, priority 2012, published 2015).

The subject of this series is carrageenan induced paw edema. The conditions noted are these: carrageenan induced paw edema model, animal-models, 100 μg/kg.

`C[C@@H]1C(=O)NCC(=O)N[C@H](C)C(=O)Nc2cc(O)ccc2C(=O)[C@H](O)[C@@H](NC(=O)[C@@H](N)CO)[C@@H]1O` [Solomonamide A]: the reduction of inflammation is given as ~60%.
